One experiment addresses T1, S100A12 (Homo sapiens, UniProt P80511).
T1 sequence (P80511 2-92): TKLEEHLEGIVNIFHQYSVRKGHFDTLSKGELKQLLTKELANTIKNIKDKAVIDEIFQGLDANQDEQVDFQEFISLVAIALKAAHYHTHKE
Nature of the experiment: fluorescence titration (tranilast emission, excitation […] nm); 1H-15N HSQC NMR titration. The experiment is classed as binding.

The next experiment has as its target T2, RAGE V domain V domain (Homo sapiens, UniProt Q15109).
T2 chain: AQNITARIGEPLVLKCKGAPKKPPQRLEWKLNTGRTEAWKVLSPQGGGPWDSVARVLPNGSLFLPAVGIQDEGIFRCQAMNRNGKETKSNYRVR
Nature of the experiment: fluorescence titration (Trp).

As a reminder, the Kd is the constant that tells how readily two partners part at equilibrium. Low readings indicate a tighter complex, high ones a looser complex. In turn, `COc1ccc(/C=C/C(=O)Nc2ccccc2C(=O)O)cc1OC` [tranilast] had a Kd on S100A12 of 6.1 ± 1.4 µM.

B1: S100A12 (protein)
chain: TKLEEHLEGIVNIFHQYSVRKGHFDTLSKGELKQLLTKELANTIKNIKDKAVIDEIFQGLDANQDEQVDFQEFISLVAIALKAAHYHTHKE
modifications: Ca2+
Regarding B1, in the experiment with RAGE V domain V domain, the Kd was ~3.1 µM.

The values are drawn from article PMC5012620, “Blocking the Interactions between Calcium-Bound S100A12 Protein and the V Domain of RAGE Using Tranilast” (PLoS ONE, 2016).
